According to US6423699B1, “Combination therapies using benzimidazolones” (American Home Products Corporation, priority 1999, dated 2002):
Values joined by “and” are separate entries in the source; they are usually repeats but may differ in a detail not shown here. Identical values can stand only once.

Tested on: rat uterine decidualization
Assay: Rat decidualization assay
Type: in vivo
Conditions: decidual response; for Estimated average EC50 (mg/kg s.c.): average over dose-response curves; for Estimated EC50 (mg/kg s.c.), individual studies: ovariectomized rats, uterine wet weight
Protocol: 2. Rat Decidualization Assay
b. Animals (RACUC protocol #5002)
The animals are treated once daily for seven days.
Uteri are removed and trimmed of fat.
Body weight: Mean total animal body weight (default-kg)
Decidual response: [(D−C)/C]×100%

Row | SMILES | Estimated average EC50 (mg/kg s.c.) | Estimated EC50 (mg/kg s.c.), individual studies
1 | C#C[C@]1(O)CC[C@H]2[C@@H]3CCC4=CC(=O)CC[C@@H]4[C@H]3C(=C)C[C@@]21CC [3-Ketodesogestrel] | 0.10 mg/kg s.c. | 0.10 mg/kg s.c. and 0.06 mg/kg s.c. and 0.11 mg/kg s.c.
2 | C#C[C@]1(O)CC[C@H]2[C@@H]3CCC4=CC(=O)CC[C@@H]4[C@H]3CC[C@@]21CC [Levonorgestrel] | 0.10 mg/kg s.c. | 0.08 mg/kg s.c. and 0.12 mg/kg s.c. and 0.09 mg/kg s.c. (2×)
3 | CC(=O)O[C@]1(C(C)=O)CC[C@H]2[C@@H]3C[C@H](C)C4=CC(=O)CC[C@]4(C)[C@H]3CC[C@@]21C [MPA, medroxyprogesterone acetate] | – | 0.42 mg/kg s.c. and 0.39 mg/kg s.c. (2×)
4 | CC(=O)[C@H]1CC[C@H]2[C@@H]3CCC4=CC(=O)CC[C@]4(C)[C@H]3CC[C@]12C [Progesterone] | 5.62 mg/kg s.c. | 5.50 mg/kg s.c.
